This assay addresses T1, human β3 adrenergic receptor (Homo sapiens, UniProt P13945).
T1 construct: expressed in transfected cells; host or cells: Chinese hamster ovary (CHO) cells, stably transfected
In words: Beta-3 agonist in vitro functional assay: cAMP production (LANCE TR-FRET) in CHO cells stably transfected with the cloned β3 receptor. The class given is cell-based. How it is done: Chinese hamster ovary (CHO) cells, stably transfected with the cloned β-adrenergic receptor (β1, β2 or β3) are harvested after 3 days of subculturing. Harvesting of cells is done with Enzyme-free Dissociation Media (Specialty Media). Cells are then counted and resuspended in assay buffer (Hank's Balanced salt solution supplemented with 5 mM HEPES, […]) containing a phosphodiesterase inhibitor (IBMX, 0.6 mM). The reaction is initiated by mixing 6,000 cells in 6 μL with 6 μL Alexa Fluor labeled cAMP antibody (LANCE™ kit) which is then added to an assay well containing 12 μL of compound (diluted in assay buffer to 2× final concentration). The reaction proceeds for 30 minutes at RT and is terminated by the addition of 24 ul detection buffer (LANCE™ kit). The assay plate is then incubated for 1 h at RT and time-resolved fluorescence measured on a Perkin Elmer Envision reader or equivalent. The unknown cAMP level is determined by comparing fluorescence levels to a cAMP standard curve.
The non-selective, full agonist β-adrenergic ligand isoproterenol is used at all three receptors to determine maximal stimulation. […] Data are analyzed using Microsoft Excel and Graphpad Prism or an internally developed data analysis software package.
A general note: cAMP levels reflect the balance of adenylyl cyclase and phosphodiesterase activity.

[1] abbreviates: Table 5, cAMP, CHO cells, read-out: Human β3 agonist functional activity.
The mark [2] stands for this setting: Table 8, Beta-3 agonist in vitro functional assay, read-out: Human β3 agonist functional activity.
Setting [3] is: Table 10, Beta-3 agonist in vitro functional assay, read-out: Human β3 agonist functional activity.
[4] abbreviates: Table 12, human β3 functional activity given as ranges, read-out: Human β3 agonist functional activity.
[5] abbreviates: Table 9, Beta-3 agonist in vitro functional assay, read-out: Human β3 agonist functional activity.
Setting [6] is: Table 4, cAMP, CHO cells, read-out: Human β3 agonist functional activity.
The mark [7] stands for this setting: given as a range, cAMP, CHO cells, read-out: human β3 functional activity.

The structures appear in SMILES notation. Like-named read-outs stand apart in the source and are kept apart here.

T1 sequence (P13945 whole entry): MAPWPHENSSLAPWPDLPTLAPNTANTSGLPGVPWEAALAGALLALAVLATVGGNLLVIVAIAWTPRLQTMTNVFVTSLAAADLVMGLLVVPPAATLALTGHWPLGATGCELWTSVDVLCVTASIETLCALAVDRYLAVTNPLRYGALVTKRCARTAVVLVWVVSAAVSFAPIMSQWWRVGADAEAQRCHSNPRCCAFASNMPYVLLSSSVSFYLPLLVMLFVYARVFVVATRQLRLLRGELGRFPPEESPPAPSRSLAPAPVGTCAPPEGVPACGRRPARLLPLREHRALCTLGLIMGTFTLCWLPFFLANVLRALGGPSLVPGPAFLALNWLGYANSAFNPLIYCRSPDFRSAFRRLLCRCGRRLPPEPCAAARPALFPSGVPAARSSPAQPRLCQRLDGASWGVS

Regarding `CS(=O)(=O)C1CCN(C(=O)c2ccc(C[C@@H]3CC[C@H]([C@H](O)c4ccccc4)N3)cc2)CC1` [Example 122], the EC50 under setting [1] lay in the range of 10 to 99.9 nM.

Consider `O=C(c1ccc(C[C@@H]2CC[C@H]([C@H](O)c3cccnc3)N2)cc1)N1CCC2(CC1)NC(=O)N(Cc1ccccc1)C2=O` [Example 270], for which the EC50 under setting [2] was in the range of 10 to 99.9 nM.

For `CC(C(=O)N1CCc2oncc2C1)N1CCN(C(=O)c2ccc(C[C@@H]3CC[C@H]([C@H](O)c4ccccc4)N3)cc2)CC1` (some centres unmarked) [Example 503], under setting [3], the EC50 fell in the range of 10 to 99.9 nM.

Turning to `O=C(O)c1cc(OC2CCN(C(=O)c3ccc(C[C@@H]4CC[C@H]([C@H](O)c5ccccc5)N4)cc3)CC2)no1` [Example 160], under setting [1], the EC50 was in the range of 100 to 999 nM.

Turning to `O=C(c1ccc(C[C@@H]2CC[C@H]([C@H](O)c3ccccc3)N2)cc1)N1CCN(C2COc3cccnc32)CC1` (single isomer, unassigned) [Example 600], the EC50 under setting [4] lay in the range of 1 to 9.9 nM.

On to `O=C1CC2(CCN(C(=O)c3ccc(C[C@@H]4CC[C@H]([C@H](O)c5ccccc5)N4)cc3)CC2)S(=O)(=O)c2ccccc21` [Example 338], for which the EC50 under setting [2] fell in the range of 1 to 9.9 nM.

In the case of `O=C(O)[C@@H]1CCCN1C(=O)CN1CCN(C(=O)c2ccc(C[C@@H]3CC[C@H]([C@H](O)c4ccccc4)N3)cc2)CC1` [Example 391], under setting [5], the EC50 was in the range of 100 to 999 nM.

Regarding `CC(C(=O)N1[C@H]2CC[C@@H]1CC2)N1CCN(C(=O)c2ccc(C[C@@H]3CC[C@H]([C@H](O)c4ccccc4)N3)cc2)CC1` (some centres unmarked) [Example 501], the EC50 under setting [3] fell in the range of 100 to 999 nM.

In the case of `O=C(c1ncc(-c2cccc(F)n2)o1)C1CCN(C(=O)c2ccc(C[C@@H]3CC[C@H]([C@H](O)c4ccccc4)N3)cc2)CC1` [Example 121], the EC50 under setting [1] was 1 to 9.9 nM.

For `O=C1NC2(CCN(C(=O)c3ccc(C[C@@H]4CC[C@H]([C@H](O)c5ccccc5)N4)cc3)CC2)CO1` [Example 271], the EC50 under setting [2] was in the range of 100 to 999 nM.

Consider `O=C(c1ccc(C[C@@H]2CC[C@H]([C@H](O)c3ccccc3)N2)cc1)N1CCCC(c2nc3ccccc3[nH]2)C1` (some centres unmarked) [Example 34], for which the EC50 under setting [6] fell in the range of 100 to 999 nM.

For `CC(C(=O)NCc1cn2ccsc2n1)N1CCN(C(=O)c2ccc(C[C@@H]3CC[C@H]([C@H](O)c4ccccc4)N3)cc2)CC1` (some centres unmarked) [Example 467], under setting [3], the EC50 was 10 to 99.9 nM.

With `O=C(c1ccc(C[C@@H]2CC[C@H]([C@H](O)c3ccccc3)N2)cc1)N1CCC2(CC1)C(=O)Oc1ccccc12` [Example 290], the EC50 under setting [2] fell in the range of 10 to 99.9 nM.

As to `CC(C(=O)NC1CCNC1=O)N1CCN(C(=O)c2ccc(C[C@@H]3CC[C@H]([C@H](O)c4ccccc4)N3)cc2)CC1` (some centres unmarked) [Example 458], the EC50 under setting [3] was in the range of 100 to 999 nM.

As to `CC(c1ccn(C)n1)N1CCN(C(=O)c2ccc(CC3CCC(C(O)c4ccccc4)N3)cc2)CC1` (single isomer, unassigned) [Example 578], the EC50 under setting [4] fell in the range of 100 to 999 nM.

With `O=C(c1ccc(C[C@@H]2CC[C@H]([C@H](O)c3ccccc3)N2)cc1)N1CCC(S(=O)(=O)C2CCCC2)CC1` [Example 126], under setting [1], the EC50 lay within 10 to 99.9 nM.

As for `O=C(c1ccc(C[C@@H]2CC[C@H]([C@H](O)c3ccccc3)N2)cc1)N1CCC2(CCOC2)CC1` [Example 311], under setting [2], the EC50 was 100 to 999 nM.

For `O=C(c1ccc(C[C@@H]2CC[C@H]([C@H](O)c3ccccc3)N2)cc1)N1CCC(OCc2ccccn2)CC1` [Example 163], the EC50 under setting [1] lay in the range of 100 to 999 nM.

With `O=C(c1ccc(C[C@@H]2CC[C@H]([C@H](O)c3ccccc3)N2)cc1)N1CCN(Cc2ncccc2O)CC1` [Example 413], the EC50 under setting [5] lay within 10 to 99.9 nM.

As to `CN1CCCC2(CCN(C(=O)c3ccc(C[C@@H]4CC[C@H]([C@H](O)c5ccccc5)N4)cc3)CC2)C1=O` [Example 257], under setting [2], the EC50 lay in the range of 100 to 999 nM.

As for `CC(C)C1CC2(CCN(C(=O)c3ccc(CC4CCC(C(O)c5ccccc5)N4)cc3)CC2)C(=O)O1` (single isomer, unassigned) [Example 568], the EC50 under setting [4] was in the range of 10 to 99.9 nM.

Consider `O=C(c1ccc(C[C@@H]2CC[C@H]([C@H](O)c3ccccc3)N2)cc1)N1CCC(S(=O)(=O)c2cc(F)ccc2F)CC1` [Example 140], for which, under setting [1], the EC50 lay within 10 to 99.9 nM.

Regarding `CCC1CC2(CCN(C(=O)c3ccc(CC4CCC(C(O)c5ccccc5)N4)cc3)CC2)C(=O)O1` (single isomer, unassigned) [Example 563], the EC50 under setting [4] lay in the range of 1 to 9.9 nM.

With `CC(C(=O)NC1CCN(C)C1=O)N1CCN(C(=O)c2ccc(C[C@@H]3CC[C@H]([C@H](O)c4ccccc4)N3)cc2)CC1` (some centres unmarked) [Example 459], the EC50 under setting [3] is less than 1 nM.

In the case of `O=C(c1ccc(C[C@@H]2CC[C@H]([C@H](O)c3ccccc3)N2)cc1)N1CCC2(CCc3cn[nH]c32)CC1` [Example 321], the EC50 under setting [2] fell in the range of 100 to 999 nM.

`O=C(c1ccc(C[C@@H]2CC[C@H]([C@H](O)c3ccccc3)N2)cc1)N1Cc2cnn(C(F)(F)F)c2C1` [Example 30]: the EC50 under setting [6] fell in the range of 100 to 999 nM.

As to `CC1(C)CC2(CCN(C(=O)c3ccc(C[C@@H]4CC[C@H]([C@H](O)c5ccc[n+]([O-])c5)N4)cc3)CC2)C(=O)O1` [Example 295], the EC50 under setting [2] lay within 100 to 999 nM.

For `O=C(c1ccc(C[C@@H]2CC[C@H]([C@H](O)c3ccccc3)N2)cc1)N1CCN(c2ncccn2)CC1` [Example 370], the EC50 under setting [5] is 100 to 999 nM.

`CC(C(=O)NCC1CC1(C)C)N1CCN(C(=O)c2ccc(C[C@@H]3CC[C@H]([C@H](O)c4ccccc4)N3)cc2)CC1` (some centres unmarked) [Example 450]: under setting [3], the EC50 is 10 to 99.9 nM.

For the molecule `CN(C)C(=O)c1cc(OC2CCN(C(=O)c3ccc(C[C@@H]4CC[C@H]([C@H](O)c5ccccc5)N4)cc3)CC2)no1` [Example 158], the EC50 under setting [1] was 100 to 999 nM.

Consider `CC(C(=O)N1CC(F)C1)N1CCN(C(=O)c2ccc(C[C@@H]3CC[C@H]([C@H](O)c4ccccc4)N3)cc2)CC1` (some centres unmarked) [Example 472], for which the EC50 under setting [3] fell in the range of 1 to 9.9 nM.

On to `CC(C)C1CC(CNC(=O)C(C)N2CCN(C(=O)c3ccc(C[C@@H]4CC[C@H]([C@H](O)c5ccccc5)N4)cc3)CC2)C1` (some centres unmarked) [Example 454], for which the EC50 under setting [3] fell in the range of 10 to 99.9 nM.

For `O=C(c1ccc(C[C@@H]2CC[C@H]([C@H](O)c3ccccc3)N2)cc1)N1CCN(Cc2nccc3ccccc23)CC1` [Example 429], under setting [5], the EC50 is 10 to 99.9 nM.

For the molecule `C[C@H](c1ccccn1)N1C2CCC1C1CCC2N1C(=O)c1ccc(C[C@@H]2CC[C@H]([C@H](O)c3ccccc3)N2)cc1` [Example 525], the EC50 (human β3 functional activity) fell in the range of 10 to 99.9 nM.

On to `CC(C(=O)N1C[C@@H]2C[C@H]1CO2)N1CCN(C(=O)c2ccc(C[C@@H]3CC[C@H]([C@H](O)c4ccccc4)N3)cc2)CC1` (some centres unmarked) [Example 500], for which the EC50 under setting [3] fell in the range of 10 to 99.9 nM.

Turning to `O=C(c1ccc(C[C@@H]2CC[C@H]([C@H](O)c3cccnc3)N2)cc1)N1CCC(n2cccn2)CC1` [Example 65, (R)-[(2R,5S)-5-(4-{[4-(1H-pyrazol-1-yl)-piperidin-1-yl]carbonyl}benzyl)pyrrolidine-2-yl](pyridin-3-yl)methanol], the EC50 under setting [7] was in the range of 100 to 999 nM.

With `COc1cccnc1N1CCN(C(=O)c2ccc(C[C@@H]3CC[C@H]([C@H](O)c4ccccc4)N3)cc2)CC1` [Example 361], under setting [5], the EC50 fell in the range of 10 to 99.9 nM.

Turning to `O=C(c1ccc(C[C@@H]2CC[C@H]([C@H](O)c3ccccc3)N2)c(Br)c1)N1CCC2(CCOC2=O)CC1` [Example 610], under “Table 13, human Beta-3 agonist functional activity given as range, read-out: Human β3 agonist functional activities”, the EC50 lay in the range of 1 to 9.9 nM.

As to `O=C(c1ccc(C[C@@H]2CC[C@H]([C@H](O)c3ccccc3)N2)cc1)N1CCC(N2Cc3ccccc3NC2=O)CC1` [Example 72], under setting [1], the EC50 is 100 to 999 nM.

With `COC(=O)c1cc(OC2CCN(C(=O)c3ccc(C[C@@H]4CC[C@H]([C@H](O)c5ccccc5)N4)cc3)CC2)no1` [Example 159], the EC50 under setting [1] lay in the range of 100 to 999 nM.

Take `COC(=O)c1csc(N2CCN(C(=O)c3ccc(C[C@@H]4CC[C@H]([C@H](O)c5ccccc5)N4)cc3)CC2)n1` [Example 381]: the EC50 under setting [5] was 100 to 999 nM.

On to `CC(C)Oc1cccnc1CN1CCN(C(=O)c2ccc(C[C@@H]3CC[C@H]([C@H](O)c4ccccc4)N3)cc2)CC1` [Example 415], for which the EC50 under setting [5] lay within 10 to 99.9 nM.

In the case of `O=C(c1ccc(C[C@@H]2CC[C@H]([C@H](O)c3ccccc3)N2)cc1)N1CCC2(CC1)CC(C1CC1)OC2=O` (single isomer, unassigned) [Ex. 553], under setting [7], the EC50 lay within 1 to 9.9 nM.

For `CC(C(=O)N1CCC[C@@H]1C)N1CCN(C(=O)c2ccc(C[C@@H]3CC[C@H]([C@H](O)c4ccccc4)N3)cc2)CC1` (some centres unmarked) [Example 480], under setting [3], the EC50 was in the range of 10 to 99.9 nM.

On to `O=C(c1ccc(C[C@@H]2CC[C@H]([C@H](O)c3ccccc3)N2)cc1)N1CCCCC1` [Example 67], for which, under setting [1], the EC50 lay in the range of 100 to 999 nM.

Regarding `CC(C(=O)N(C)C)N1CCN(C(=O)c2ccc(C[C@@H]3CC[C@H]([C@H](O)c4ccccc4)N3)cc2)CC1` (some centres unmarked) [Example 513], under setting [3], the EC50 was 1 to 9.9 nM.

In the case of `O=C(c1ccc(C[C@@H]2CC[C@H]([C@H](O)c3ccccc3)N2)cc1)N1CCC2(CCNC2)CC1` [Example 306], under setting [2], the EC50 was in the range of 1 to 9.9 nM.

`CON=C1CCCC12CCN(C(=O)c1ccc(CC3CCC(C(O)c4ccccc4)N3)cc1)CC2` (centres unmarked) [Example 318]: the EC50 under setting [2] is 100 to 999 nM.

Regarding `O=C(c1ccc(C[C@@H]2CC[C@H]([C@H](O)c3ccccc3)N2)cc1)N1CCN(C(=O)c2ccco2)CC1` [Example 349], the EC50 under setting [5] was in the range of 100 to 999 nM.

Take `O=C(c1ccc(C[C@@H]2CC[C@H]([C@H](O)c3ccccc3)N2)cc1)N1CC2CC(n3cnnn3)CC2C1` (some centres unmarked) [Example 23]: the EC50 under setting [6] was 10 to 99.9 nM.

For the origin of these results see patent publication US8354403B2, “Pyrrolidine derived beta 3 adrenergic receptor agonists” (Merck Sharp & Dohme Corp., priority 2009, dated 2013).
